Laboratory results: article PMC7059070, “Synthesis and in-vitro Evaluation of S-allyl Cysteine Ester - Caffeic Acid Amide Hybrids as Potential Anticancer Agents” (Iranian Journal of Pharmaceutical Research : IJPR, 2019)
Values after ≈ are worked out from the molar mass of the structure shown. Where two headings read alike, the source gives them in different places.

Key:
[1] = test system: non-malignant CHO-K1 cell line; assay: Cell viability, sulforhodamine B (SRB) assay, CHO-K1 cells; format: cell-based; details: Cricetulus griseus
Protocol: (§1) Biological assays were performed using an adenocarcinoma colon cancer cell line (SW480) and non-malignant cells (CHO-K1). These were obtained from the European Collection of Authenticated Cell Cultures (ECACC, England) and maintained in Dulbecco’s Modified Eagle Medium, supplemented with 10% heat-inactivated (56 °C) horse serum, 1% penicillin/streptomycin and 1% non-essential amino acids (Gibco Invitrogen, Carlsbad, USA). For all experiments, horse serum was reduced to 3%, and the medium was supplemented with […] transferrin, 5 ng/mL selenium and […] insulin (ITS-defined medium; Gibco, Invitrogen, Carlsbad, USA) ([32]).
(§2) The cell viability of the synthesized hybrids, lead, and reference compounds was evaluated through Sulforhodamine B (SRB) assay, a colorimetric test that is based on staining of total cellular protein of adherent cells. The cells were seeded to a ﬁnal density of 20.000 cells/well in 96-well tissue culture plates and incubated at 37 °C in a humidified atmosphere at 5% CO2. […] After treatment, the cells were fixed with trichloroacetic acid (50% v/v) (MERCK) for a period of one h at 4 °C. The cell proteins were determined by staining with 0.4% (w/v) SRB (Sigma-Aldrich, United States), then they were washed with 1% acetic acid for the removal of unbound SRB and left for air-drying. Protein bound SRB was solubilized in 10 mM Tris-base and the absorbance was measured at 492 nm in a microplate reader (Mindray MR-96A) ([33]). All of the experiments were performed at least in quintuplicate.

[2] = test system: SW480 human colon adenocarcinoma cells; assay: Cell viability, sulforhodamine B (SRB) assay, SW480 cells; format: cell-based; details: for IC50: Homo sapiens, SW480 cells, SRB; for SI (selectivity index), 24 h: ratio of IC50 against CHO-K1 to IC50 against SW480, 24 h; for SI (selectivity index), 48 h: ratio of IC50 against CHO-K1 to IC50 against SW480, 48 h
Protocol: as §1, §2

SW480 cells [3] = assay: Antiproliferative activity, SRB assay over 0-8 days; format: cell-based, human; details: 0.1-0.55 mM, p ≤ 0.05 vs control
Protocol: Briefly, the cells were seeded to a ﬁnal density of 2500 cells/well in 96-well tissue culture plates and incubated in the same conditions described for viability. […] Culture media was replaced every 48 h. After each incubation time, the cells were fixed, stained, and read as previously described for this technique ([32]).

SW480 cells [4] = assay: Cell cycle analysis, propidium iodide flow cytometry; format: cell-based, human; details: SW480, treated at IC50, 48 h
Protocol: Cell cycle distribution was analyzed by labelling cells with propidium iodide (PI). Assays were carried out as described by Nicoletti et al. (1991). In brief, cells were seeded in 6-well tissue culture plates at a density of 2.5 x 10^5 cells/well, incubated at 37 °C in a 5% CO2 atmosphere. […] After the treatment, the cells were collected by scraping and the centrifuged cell pellet was resuspended with phosphate buffered saline (PBS). The cell suspension was fixed in 1.8 mL 70% ethanol at 4°C overnight, afterward, these were centrifuged, washed twice in PBS and resuspended in 300 µL of PBS containing 0.25 mg/mL RNAse (Type I-A, Sigma-Aldrich, Germany) and 0.1 mg/mL PI. Following the incubation in the dark at room temperature for 30 min, the PI ﬂuorescence of 10,000 cells was analyzed using a FACS Canto II ﬂow cytometer and the software BD FACS Diva 6.1.3. (BD Biosciences, San Jose). PI signal was analyzed with excitation at 488 nm, using a Sapphire laser, and fluorescence was detected at 610nm. The cell clumps were excluded with the PI-Area vs PI-Width signals. The cell cycle model was ﬁxed using the software FlowJo 7.6.2 (Ashland, OR, USA), applying the Dean-Jett-Fox model ([34], [35]).

SW480 cells [5] = assay: Mitochondrial membrane potential (ΔΨm), DiOC6/PI flow cytometry; format: cell-based, human; details: SW480, treated at IC50, 48 h; for Mitochondrial membrane depolarization in words: vs control; for PI+ cells: cells in process of death; for DiOC6 low cells: cells that lose membrane polarization; for DiOC6 high cells: live cells with high membrane polarization
Protocol: Mitochondrial membrane permeability changes were assessed through the fluorescent dye DiOC6 (3,3’-dihexyloxacarbocyanine iodide, Thermo Fisher Scientiﬁc, Waltham, MA, USA), and propidium iodide (PI). The cells were seeded to a ﬁnal density of 2.5 x 10^5 cells/well in 6-well tissue culture plates and were allowed to grow for 24 h. […] The cells were collected to analyze 10,000 events by ﬂow cytometry with excitation at 488 nm and detection of the emission with the green (530/15 nm) and the red (610/20 nm) ﬁlters. This method allowed us quantifying cells with depolarized mitochondrial membrane ([34]).

[6] = test system: human gastric carcinoma cell line BGC-823; design: method as in PMID 19272773; details: cited from earlier work
[7] = test system: human nasopharyngeal carcinoma cell line KB; design: method as in PMID 19272773; details: cited from earlier work
[8] = test system: human hepatoma cell line BEL-7402; design: method as in PMID 19272773; details: cited from earlier work
[9] = 24 h treatment, read-out: IC50 (mM) CHO-K1 cells, 24 h
[10] = 48 h treatment, read-out: IC50 (mM) CHO-K1 cells, 48 h
[11] = 24 h treatment, read-out: IC50 (mM) SW480 cells, 24 h
[12] = 48 h treatment, read-out: IC50 (mM) SW480 cells, 48 h

Compound	melting point	IC50 [2, 11]	IC50 [2, 12]	IC50 [1, 9]	IC50 [1, 10]	SI (selectivity index), 24 h [2]	Day from which significant antiproliferative activity was displayed (SW480 cells [3])	SI (selectivity index), 48 h [2]	Cells in G2/M phase (SW480 cells [4])	Effect on cell cycle in words (SW480 cells [4])	Mitochondrial membrane depolarization in words (SW480 cells [5])	PI+ cells (SW480 cells [5])	DiOC6 low cells (SW480 cells [5])	DiOC6 high cells (SW480 cells [5])	Cytotoxic activity in words ([2]; at 24 h and 48 h after treatment)	IC50 against BGC-823 [6]	IC50 against KB [7]	IC50 against BEL-7402 [8]	Cells in G0/G1 phase (SW480 cells [4])	Cells in S phase (SW480 cells [4])
C=CCSC[C@H](N)C(=O)OC [3a, S-Allylcysteine methyl ester]	114 to 116 °C	> 10 mM	> 10 mM	1.85 mM	> 10 mM	<0.19														
C=CCSC[C@H](NC(=O)/C=C/c1ccc(OC(C)=O)c(OC(C)=O)c1)C(=O)OC [6a, Methyl N-{(2E)-3-[3,4-bis(acetyloxy)phenyl]prop-2-enoyl}-S-prop-2-en-1-ylcysteinate]		0.67 mM	> 10 mM	2.77 mM	7.83 mM															
C=CCSC[C@H](NC(=O)/C=C/c1ccc(O)c(O)c1)C(=O)OC [9a, Methyl N-[(2E)-3-(3,4-dihydroxyphenyl)-2-propenoyl]-S-2-propen-1-yl-L-cysteinate]	101 to 103 °C	0.24 mM	0.12 mM	0.47 mM	0.18 mM	2.0		1.5	18.8%	cell cycle arrest in G2/M phase	highest activity	8,16%	62,9%	29,4%						
C=CCSC[C@H](NC(=O)/C=C/c1ccc(OC(C)=O)c(OC(C)=O)c1)C(=O)OCCCCC [6e, Pentyl N-{(2E)-3-[3,4-bis(acetyloxy)phenyl]prop-2-enoyl}-S-prop-2-en-1-ylcysteinate]	101 to 103 °C	0.68 mM	0.18 mM	0.26 mM	1.84 mM	0.40	2 days	10.3	22.7%	cell cycle arrest in G2/M phase		9,38%	39,9%	51,0%						
C=CCSC[C@H](NC(=O)/C=C/c1ccc(OC(C)=O)c(OC(C)=O)c1)C(=O)OCC [6b, Ethyl N-{(2E)-3-[3,4-bis(acetyloxy)phenyl]prop-2-enoyl}-S-prop-2-en-1-ylcysteinate]		> 10 mM	> 10 mM	3.84 mM	> 10 mM										did not exhibit activity					
C=CCSC[C@H](NC(=O)/C=C/c1ccc(O)c(O)c1)C(=O)OCC [9b, Ethyl N-[(2E)-3-(3,4-dihydroxyphenyl)-2-propenoyl]-S-2-propen-1-yl-L-cysteinate]		0.93 mM	0.12 mM	> 10 mM	> 10 mM					did not have any impact on the cell cycle		21,9%	36,5%	42,0%						
C=CCSC[C@H](NC(=O)/C=C/c1ccc(OC(C)=O)c(OC(C)=O)c1)C(=O)OCCC [6c, Propyl N-{(2E)-3-[3,4-bis(acetyloxy)phenyl]prop-2-enoyl}-S-prop-2-en-1-ylcysteinate]	80 to 82 °C	1.02 mM	> 10 mM	0.27 mM	1.25 mM	0.26		<0.13												
C=CCSC[C@H](NC(=O)/C=C/c1ccc(OC(C)=O)c(OC(C)=O)c1)C(=O)OCCCC [6d, Butyl N-{(2E)-3-[3,4-bis(acetyloxy)phenyl]prop-2-enoyl}-S-prop-2-en-1-ylcysteinate]		2.79 mM	> 10 mM	0.21 mM	9.97 mM															
Cc1cccc(NC(=O)/C(C#N)=C/c2cc(O)c(O)c([N+](=O)[O-])c2)c1 [cyanoamide derivative 5]																5.6 µg/mL (≈ 16.5 µM)	13.1 µg/mL (≈ 38.6 µM)	12.5 µg/mL (≈ 36.8 µM)		
C=CCSC[C@H](N)C(=O)OCCC [3c, Propyl S-prop-2-en-1-ylcysteinate]	115 to 117 °C	> 10 mM	1.28 mM	1.5 mM	1.24 mM	<0.15		0.97												
O=c1[nH]cc(F)c(=O)[nH]1 [5-Fluorouracil, 5-fluorouracil, reference compound]		0.062 mM	0.035 mM	0.091 mM	0.048 mM			1.34												

More lines, main results first:

melting point	IC50 [2, 11]	IC50 [2, 12]	Compound	IC50 [1, 9]	IC50 [1, 10]	SI (selectivity index), 24 h [2]	Day from which significant antiproliferative activity was displayed (SW480 cells [3])	SI (selectivity index), 48 h [2]	Cells in G2/M phase (SW480 cells [4])	Effect on cell cycle in words (SW480 cells [4])	Mitochondrial membrane depolarization in words (SW480 cells [5])	PI+ cells (SW480 cells [5])	DiOC6 low cells (SW480 cells [5])	DiOC6 high cells (SW480 cells [5])	Cytotoxic activity in words ([2]; at 24 h and 48 h after treatment)	IC50 against BGC-823 [6]	IC50 against KB [7]	IC50 against BEL-7402 [8]	Cells in G0/G1 phase (SW480 cells [4])	Cells in S phase (SW480 cells [4])
119 to 121 °C	0.11 mM	0.15 mM	C=CCSC[C@H](NC(=O)/C=C/c1ccc(O)c(O)c1)C(=O)OCCCC [9d, Butyl N-[(2E)-3-(3,4-dihydroxyphenyl)-2-propenoyl]-S-2-propen-1-yl-L-cysteinate]	> 10 mM	> 10 mM	>90.91	4 days	>66.67												
	0.2 mM	0.12 mM	C=CCSC[C@H](NC(=O)/C=C/c1ccc(O)c(O)c1)C(=O)OCCCCC [9e, Pentyl N-[(2E)-3-(3,4-dihydroxyphenyl)-2-propenoyl]-S-2-propen-1-yl-L-cysteinate]	0.21 mM	> 10 mM		2 days		22.3%	cell cycle arrest in G2/M phase	highest activity	8,32%	59,9%	32,5%						
	7.06 mM	3.47 mM	O=C(O)/C=C/c1ccc(O)c(O)c1 [Caffeic acid]	> 10 mM	> 10 mM	>1.42		>2.88												
	> 10 mM	0.38 mM	C=CCSC[C@H](N)C(=O)O [S-Allylcysteine, reference compound]	> 10 mM	> 10 mM	>1.0		>26.32												
	0.1 mM	0.11 mM	C=CCSC[C@H](NC(=O)/C=C/c1ccc(O)c(O)c1)C(=O)OCCC [9c, Propyl N-[(2E)-3-(3,4-dihydroxyphenyl)-2-propenoyl]-S-2-propen-1-yl-L-cysteinate]	0.12 mM	> 10 mM					S- phase		9,13%	45,0%	44,5%					67.3%	23%
